Molecules are shown by their SMILES. Calls of active or inactive are those of the source. Cut-off read from the data, not from the text of the source: actives have a measured IC50 and inactives only a lower limit.

In the assay the target is Envelope glycoprotein gp160 (Human immunodeficiency virus 1, UniProt Q6QLK5). Nature of the assay: inhibitors of HIV fusion peptide binding, primary screen, biochemical, uHTS, fluorescence dequenching (AID 1986).
Sequence of Envelope glycoprotein gp160 (Q6QLK5 whole entry, the tested form may be a part): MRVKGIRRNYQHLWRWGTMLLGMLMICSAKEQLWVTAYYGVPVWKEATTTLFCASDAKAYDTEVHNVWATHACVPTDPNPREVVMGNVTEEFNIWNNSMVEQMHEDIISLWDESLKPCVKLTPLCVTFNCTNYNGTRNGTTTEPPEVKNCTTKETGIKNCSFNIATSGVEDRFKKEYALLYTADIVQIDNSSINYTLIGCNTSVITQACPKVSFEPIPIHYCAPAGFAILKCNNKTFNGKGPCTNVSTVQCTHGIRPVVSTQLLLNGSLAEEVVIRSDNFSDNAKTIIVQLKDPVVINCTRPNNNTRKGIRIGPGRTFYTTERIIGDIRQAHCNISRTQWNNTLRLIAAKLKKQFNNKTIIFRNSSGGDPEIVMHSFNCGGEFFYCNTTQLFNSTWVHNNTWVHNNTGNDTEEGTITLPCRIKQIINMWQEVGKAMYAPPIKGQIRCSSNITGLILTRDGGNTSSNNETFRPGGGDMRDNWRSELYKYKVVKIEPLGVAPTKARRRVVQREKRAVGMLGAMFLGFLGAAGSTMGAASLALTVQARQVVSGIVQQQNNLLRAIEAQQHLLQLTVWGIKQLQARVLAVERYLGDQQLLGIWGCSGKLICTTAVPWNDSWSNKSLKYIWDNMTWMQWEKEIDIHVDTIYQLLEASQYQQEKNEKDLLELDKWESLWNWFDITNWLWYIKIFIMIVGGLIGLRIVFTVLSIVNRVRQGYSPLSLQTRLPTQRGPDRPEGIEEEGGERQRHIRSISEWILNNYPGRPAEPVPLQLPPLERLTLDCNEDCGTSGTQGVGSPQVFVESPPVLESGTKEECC
As a reminder, the IC50 is the concentration at which inhibition is half-maximal. In the case of `COc1cc(C(=O)Nc2scc(-c3ccc(Br)cc3)c2C(=O)O)cc(OC)c1OC`, the IC50 was 33.2 µM (active).
In the case of `CC(/C=C1\SC(=S)N(C(C(=O)O)c2ccccc2)C1=O)=C\c1ccccc1` (centres undefined), the IC50 is 46 µM (active).
Regarding `O=C(N/N=C/c1cc(Br)c(O)c(Br)c1)c1cc2c(ccc3ccccc32)o1`, the IC50 was 15 µM (active).
Take `COc1ccc(C(=O)Oc2ccc(/C=N/Nc3ccc(Cl)c(C(=O)O)c3)cc2OC)cc1`: the IC50 is 19.3 µM (active).

Values taken from ChEMBL document CHEMBL1201862, “PubChem BioAssay data set” (2004).
